From US11633380B2, “Use of trans-[tetrachlorobis(1H-indazole)ruthenate(III)] for the treatment of cancer” (Bold Therapeutics, Inc., priority 2016, dated 2023)

Tests used:
A549 = experiment: Mitochondrial potential, JC-1 flow cytometry, A549 (Example 9); format: cell-based, human; conditions: lung (A549), 30-200 uM IT-139, 24 h
Method: (§1) Example 9. All human primary and metastatic cell lines were maintained as described by ATCC. All cell lines (HCT116, HT-29, LNCaP, A549 and A375) were seeded in a 6 well plate 24 hours prior to treatment with IT-139 alone. All cell lines were treated with 30 uM, 50 uM, 100 uM and 200 uM with the following exceptions: treatment with 30 uM and 200 uM were omitted for HCT116 and HT29 cell lines respectively. After 24 h incubation with the drug, cells were trypsinized and re-suspended in warm PBS and stained with the JC-1 dye for 30 min at 37 C in the dark. The cells were then washed and re-suspended in warm PBS. The fluorescence of the JC-1 dye was measured by flow cytometry analysis by exciting the dye at 488 nm and detecting the JC-1 monomer through its emission at 530 nm with aggregates of JC-1 being measured at 580 nm. All cell lines treated with Antimycin A at 50 uM as positive control.

CT26 cells = experiment: CT26 subcutaneous syngeneic tumor model (Example 3); format: in vivo, mice; conditions: twice weekly, four doses; IT-139 30 mg/kg intravenously, RPM1-14 5 mg/kg intraperitoneally; through day 18
Method: Example 3. CT26 cells (1 million) were subcutaneously implanted in immunocompetent mice and allowed to grow until a palpable tumor was established (day 3). Groups of four mice per group were treated twice weekly with four total doses of either 1) saline, 2) IT-139 alone (KP1339, 30 mg/kg), 3) RPM1-14 (PD-1 antibody, 5 mg/kg), or 4) RPM1-14 and IT-139 (5 mg/kg and 30 mg/kg, respectively). IT-139 was administered intravenously and RPM1-14 was administered intraperitoneally. Administrations were made on the same day. Tumor volume was measured through day 18.

[1] = system: normal peripheral blood mononuclear cells (PBMCs); experiment: Cell viability, MiaPaca2 cells co-cultured with normal PBMCs (Example 10); format: cell-based; conditions: IT-139 50, 100 and 200 μM, 24 h, co-culture with normal PBMCs
Method: Example 10. […] cancer cell line, MiaPaca2, was maintained as described by ATCC. […] […] PBMCs were activated using 6000 IU of IL-2 for 24 h.

A375 = experiment: Mitochondrial potential, JC-1 flow cytometry, A375 (Example 9); format: cell-based, human; conditions: melanoma (A375), 30-200 uM IT-139, 24 h
Method: as §1

Grp78 promoter = experiment: ChIP assay, Polymerase II binding to Grp78 promoter in HCT116 cells (Example 5); format: cell-based, human; conditions: 200 μM IT-139, 16 hours
Method: (§2) Example 5. Chromatin immunoprecipitation (ChIP) assay was performed to examine Polymerase II binding to Pol II and GRP78 promoter regions in stressed and unstressed cells with IT-139 treatment. HCT116 cells were grown to 80% confluence then treated with 1.5 μg/mL tunicamycin and 200 μM IT-139 or DMSO for 16 hours. Chromatin was cross-linked using formaldehyde. Cells were harvested with trypsin and isolated nuclei were sonicated to yield fragments between 200-1000 bp. Equal amounts of chromatin were incubated with anti-Pol II antibody overnight then pulled down with Staph A cells. Cross-linking was reversed and the DNA was purified using a GeneElute PCR cleanup kit from Sigma. Purified DNA and input samples were subjected to 30 cycles of PCR with primers amplifying promoter regions of Grp78 and Pol II. The products were run on a 4% agarose gel and visualized with ethidium bromide staining. […] Strikingly, IT-139 dropped Polymerase II binding to the Grp78 promoter to zero in both non-stressed and Tu-stressed cells.

[2] = system: UPR (XBP-1 spliced form, ATF6, eIF2a); experiment: Effect on other arms of the UPR; format: cell-based
GRP78 [3] = experiment: GRP78 expression in ASPC20 cells, order of dosing thapsigargin and IT-139 (Example 11); format: cell-based; conditions: 30 hours
Method: FIG. 12 depicts expression of GRP78 protein levels treated with DMSO; 150 μM IT-139; 1 μM Thapsigargin (Tg); simultaneous treatment of 150 μM IT-139 and 1 μM Tg; 1 μM Tg treated for 6 hours followed by 150 μM IT-139 for 24 hours; and […] IT-139 for 24 hours followed by […] Tg treatment for 24 hours for lanes 1-5, respectively. Lanes 6-12 are the same treatments incubated for a further 24 hours.
Example 11. […] In vitro ASPC20 cells are treated for 48 hours with DMSO (control), 150 μM IT-139, 5 μM gemcitabine, simultaneous 150 μM IT-139 and 5 μM gemcitabine, 5 μM gemcitabine for 24 hours followed by 150 μM IT-139, or 150 μM IT-139 followed by 24 hrs 5 μM gemcitabine. Cells are harvested and counted by trypan blue to calculate the number of dead cells versus viable cells. […] PANC-1 cells are treated in vitro for 48 hours with DMSO (control), 150 μM IT-139, 5 μM gemcitabine, simultaneous 150 μM IT-139 and 5 μM gemcitabine, 5 μM gemcitabine for 24 hours followed by 150 μM IT-139, and 150 μM IT-139 followed by 24 hours 5 μM gemcitabine.

GRP78 mRNA [4] = experiment: Quantitative real-time PCR of GRP78 transcripts in cell lines (Example 2); format: cell-based, human; conditions: IT-139 200 μM, 24 hours
Method: Example 2. All human primary and metastatic cell lines were maintained as described by ATCC. Cells were seeded in a 6 well plate prior to treatment with media alone (control), IT-139 (200 μM) alone, thapsigargin alone (300 nM, to induce cell stress) or IT-139 plus thapsigargin. Cell lysates were collected at 24 hours and total RNA was extracted. Quantitative real-time PCR analysis of GRP78 transcripts normalized to GAPDH.

HCT116 = experiment: Mitochondrial potential, JC-1 flow cytometry, HCT116 (Example 9); format: cell-based, human; conditions: HCT116, 50 μM IT-139, 24 h
Method: as §1

GRP78 [5] = experiment: GRP78 protein level by western blot in cell lines, unstressed or thapsigargin-stressed (Example 1); format: cell-based, human; conditions: IT-139 200 μM, 16 hours
Method: Example 1. All human primary and metastatic cell lines were maintained as described by ATCC. Cells were seeded in a 6 well plate prior to treatment with media alone (control), IT-139 (200 μM) alone, thapsigargin alone (300 nM, to induce cell stress) or IT-139 plus thapsigargin. Cell lysates were collected at 16 hours and were analyzed by western blot for anti-GRP78 antibody and normalized by GAPDH.

HCT116 cells = experiment: Electron microscopic evaluation of HCT116 cells (Example 4); format: cell-based, human; conditions: IT-139 200 μM, 24 hours, versus untreated cells
Method: Example 4. HCT116 cell line was seeded one day prior to treatment according to ATCC guidelines. 24 hours after treatment with IT-139 (200 μM), treated and untreated cells were fixed for electron microscopic evaluation.

MiaPaca2 cells = experiment: Cell death of MiaPaca2 cells co-cultured with IL-2 activated PBMCs (Example 10); format: cell-based; conditions: pre-treated with IT-139 100 μM, co-cultured with PBMCs activated with 6000 IU IL-2 for 24 h
Method: Example 10. […] cancer cell line, MiaPaca2, was maintained as described by ATCC. […] MiaPaca2 cells were either untreated or pre-treated with IT-139 (100 μM) and co-cultured with IL-2 activated PBMCs at varying doses. PBMCs were activated using 6000 IU of IL-2 for 24 h.

LNCaP = experiment: Mitochondrial potential, JC-1 flow cytometry, LNCaP (Example 9); format: cell-based, human; conditions: prostate (LNCaP), 30-200 uM IT-139, 24 h
Method: as §1

tumor types = experiment: Preclinical anti-tumor and combination studies
HT29 = experiment: Mitochondrial potential, JC-1 flow cytometry, HT29 (Example 9); format: cell-based, human; conditions: HT29, 30 μM IT-139, 24 h
Method: as §1

GRP78 [6] = experiment: Immunohistochemical analysis of GRP78 in HT-29 xenograft tumors (Example 6); format: in vivo; conditions: IT-139 30 mg/kg (q4d), versus strong immunostaining in saline treated tumors
Method: Example 6. Immunohistochemical analysis was performed to analyze the expression of GRP78 in HT-29 xenograft tumors treated with IT-139 at 30 mg/kg (q4d) in comparison to saline treated tumors.

[7] = system: GRP78 promoter fragment (−169 to −29; contains 3 ERSEs); experiment: GRP78 promoter fragment luciferase reporter; format: cell-based
GRP78 [8] = experiment: GRP78 levels by western blot in normal embryonic kidney 293T cells (Example 7); format: cell-based, human
Method: Example 7. Normal human embryonic kidney 293T cells were either non-stressed (treated with normal media) or stressed (treated with 300 nM EndRet stress & GRP78 inducer Thapsigargin). Cell cultures were either treated with no drug (control) or 200 μM IT-139. GRP78 levels assayed by western blot; β-actin is loading control.

Pol II promoter = experiment: ChIP assay, Polymerase II binding to Pol II promoter in HCT116 cells (Example 5); format: cell-based, human; conditions: 200 μM IT-139, 16 hours
Method: as §2

GRP78 mRNA [9] = experiment: Northern blot of GRP78 mRNA in LnCaP-FGC cells (Example 8); format: cell-based, human; conditions: untreated or 300 nM thapsigargin, indicated concentrations of IT-139
Method: Example 8. Prostate cancer LnCaP-FGC cells were untreated (DMSO only control) or treated with 300 nM thapsigargin (Tg). Cells were co-incubated with the indicated concentrations of IT-139 and Northern blot analysis was performed on cell lysates. β-actin is the loading control.

[10] = Tu-stressed HCT116 cells (1.5 μg/mL tunicamycin)
[11] = stressed cells (thapsigargin 300 nM)

[Cl][Ru-]([Cl])([Cl])[Cl].[Na+].c1ccc2[nH]ncc2c1.c1ccc2[nH]ncc2c1 [IT-139, sodium trans-[tetrachlorobis(1H-indazole)ruthenate(III)]]
mitochondrial potential (JC-1) (A549): increase in mitochondrial depolarization at high concentrations | anti-tumor activity (tumor volume) (CT26 cells): demonstrated anti-tumor activity | cell viability [1]: did not show any effect upon cell viability | mitochondrial potential (JC-1) (A375): increase in mitochondrial depolarization at high concentrations | Polymerase II binding to the Grp78 promoter, dropped to (Grp78 promoter; [10]): zero | Polymerase II binding to the Grp78 promoter, dropped to (Grp78 promoter; non-stressed HCT116 cells): zero | effect on other arms of the UPR (induction XBP-1 spliced form; induction, processing and nuclear import of ATF6; phosphorylation of eIF2a) [2]: does not block other arms of the UPR | effect of order of dosing with thapsigargin (Tg) on GRP78 expression (GRP78 [3]): affects levels of GRP78 expression | effect on GRP78 mRNA expression (qRT-PCR, normalized to GAPDH) (GRP78 mRNA [4]; [11]): decreased the amount of GRP78 mRNA expression | effect on grp78 mRNA levels (qRT-PCR, normalized to GAPDH) (GRP78 mRNA [4]; unstressed cells): little impact | mitochondrial potential (JC-1) (HCT116): increased loss of mitochondrial potential | effect on GRP78 protein (western blot, normalized by GAPDH) (GRP78 [5]; [11]): decreased the amount of GRP78 | effect on GRP78 protein (western blot, normalized by GAPDH) (GRP78 [5]; unstressed cells): little to no effect | cell morphology by electron microscopy (HCT116 cells): significant vacuolization, ER expansion and disorganization of intracellular organelles | cell death in MiaPaca2 cells (MiaPaca2 cells): increased cell death | mitochondrial potential (JC-1) (LNCaP): increase in mitochondrial depolarization at high concentrations | synergy in combination with other anti-cancer drugs (tumor types; all different classes of anti-cancer drugs tested to date): marked synergy | anti-tumor activity in preclinical studies (tumor types; including tumor types resistant to standard anti-cancer agents): activity against a broad range of tumor types | mitochondrial potential (JC-1) (HT29): increased loss of mitochondrial potential | GRP78 immunostaining of tumors (GRP78 [6]): very weak staining | stress-induction of GRP78 promoter fragment linked to luciferase reporter gene [7]: suppress stress-induction | effect on basal GRP78 levels (GRP78 [8]; non-stressed normal cells): does not effect the basal GRP78 levels | effect on GRP78 up-regulation due to stress (GRP78 [8]; stressed normal cells): does not effect GRP78 up-regulation due to stress | Polymerase II binding to the Pol II promoter, reduced to (Pol II promoter; [10]): 40% | Polymerase II binding to the Pol II promoter (Pol II promoter; non-stressed HCT116 cells): minimal effect | suppression of GRP78 at the transcriptional level (Northern blot, normalized against β-actin) (GRP78 mRNA [9]): dose dependent manner
